Here are results for 2 compounds from patent publication US20220241409A1, “WATER SOLUBLE ADJUVANT AND COMPOSITION CONTAINING SAME” (Sumitomo Dainippon Pharma Co., Ltd., priority 2019, published 2022).

The subject of experiment [1] is HLA-A*24:02 transgenic mouse. Briefly: In vivo adjuvant activity, CTL induction with vaccine e, IFNγ ELISPOT (Test 16). As to conditions: 0.4 nmol per body added to vaccine e versus no compound; twice. The protocol:
The in vivo adjuvant activity of the compound of Example 2 was evaluated in the following procedure. To a vaccine prepared by mixing Peptide SEQ ID No. 18 prepared in Reference example 18 with Montanide ISA 51 VG (hereinafter, referred to as “vaccine e”) was added the compound prepared in Example 2 to prepare a vaccine. The vaccine was administered to a HLA-A*24:02 transgenic mouse, and the adjuvant activity of the vaccine was evaluated by the method of testing antigen-specific CTL induction. The TYAGCLSQIF in Peptide SEQ ID No. 18 corresponds to an antigen peptide derived from an HLA-A*24:02-restricted Or7c1 protein.
The character for inducing CTLs specific to the antigen peptide (SEQ ID No. 18) by vaccine e was evaluated by measuring whether IFNγ can be produced upon stimulation of splenocytes from the mouse with the peptide. In addition, the character for exerting in vivo adjuvant activity by the compound in Example 2 was evaluated by comparing the number of CTLs induced by vaccine e and the number of CTLs induced by the vaccine prepared by adding the compound prepared in Example 2 to vaccine e, and checking presence or absence of the increase on the number.
Specifically, Peptide of SEQ ID No. 18 was dissolved in DMSO, and then diluted with water for injection to concentrations of 3 mg/mL. […]

Experiment [2] has as its system mouse bone marrow-derived dendritic cell. The experiment can be described thus: Activation of mouse bone marrow-derived dendritic cell, cytokine/chemokine production (Test 4). The format is cell-based. As to conditions: 200 nmol/L, one day, compared with only DMSO. The protocol:
Myeloid cells were collected from the femur and tibia of HLA-A*02:01 transgenic mouse (C57BL/6CrHLA-A2.1DR1), and then suspended in RPMI 1640 medium with 10% fetal bovine serum (FBS) and 10 ng/mL of GM-CSF. The dendritic cells in the myeloid cells were incubated at 37° C. under an atmosphere of 5% CO2 for induction of differentiation. Seven days after the incubation, the cells were collected. After observing the expression of CD11c on the cell surface by flow cytometry, the cells were cryopreserved. Cryopreserved mouse bone marrow-derived dendritic cells were reconstituted, suspended in RPMI 1640 medium with 10% FBS, and seeded on a U-bottom 96 well plate at 5×10^5 cells/well. The compound prepared in Example 3 was added in the presence of 0.1% (v/v) DMSO to the wells at a final concentration of 200 nmol/L. The plate was incubated at 37° C. under an atmosphere of 5% CO2. One day after the incubation, the culture supernatant was collected. The concentration of cytokine and chemokine (IL-1p, IL-6, IL-12p40, IL-12p70, IP-10, MIP-1α, MIP-1β, Rantes, and TNFα) which were included in each culture supernatant was measured with Milliplex Mouse Cytokine/Chemokine Magnetic Bead Panel kit (Millipore) and Luminex system in accordance with the manufacturer's protocol. […]

Experiment [3] concerns HLA-A*02:01/HLA-DRB1*01:01 transgenic mouse. The experiment can be described thus: In vivo adjuvant activity, helper T-cell induction with vaccine d, IFNγ ELISPOT (Test 10). The conditions noted are these: 3.25 ng per body added to vaccine d versus no compound; twice, one week interval. How it is done: The in vivo adjuvant activity of the compound prepared in Example 3 was evaluated in the following procedure. To a cocktail vaccine comprising Compound SEQ ID No. 1 prepared in Reference example 1 and Peptide SEQ ID No. 4 prepared in Reference example 4 with a preliminarily-emulsified composition (hereinafter, referred to as “vaccine d”) was added the compound prepared in Example 3 to prepare a vaccine. The vaccine was administered to a HLA-A*02:01/HLA-DRB1*01:01 transgenic mouse (C57BL/6CrHLA-A2.1DR1), and the adjuvant activity of the vaccine was evaluated by the method of testing antigen-specific helper T-cell induction. Peptide SEQ ID No. 4 is a helper peptide derived from HLA-DRB1*01:01-restricted WT1 protein.
Specifically, Peptide SEQ ID No. 1 and Peptide SEQ ID No. 4 were dissolved in DMSO, and then diluted with water for injection to concentrations of Peptide SEQ ID No. 1 of 0.9 mg/mL and Peptide SEQ ID No. 4 of 1.8 mg/mL. The diluted peptide solution was mixed and emulsified with an equal volume of a preliminarily-emulsified composition to prepare vaccine d. Vaccine d was injected to mice intradermally at the tail base area in an amount for administering 180 μg of Peptide SEQ ID No. 1 per body and 360 μg of Peptide SEQ ID No. 4 per body. […] Then, after removal of the supernatant from the wells, stained spots on the ELISPOT plate were counted.

For the compound `CCCCOc1nc(N)c2[nH]c(=O)n(Cc3ccc(CN(C)CCOCCOCCOCCOCCO)nc3)c2n1` [Example 2, 6-amino-2-butoxy-9-{[6-(16-hydroxy-2-methyl-5,8,11,14-tetraoxa-2-azahexadecan-1-yl)pyridin-3-yl]methyl}-7,9-dihydro-8H-purin-8-one-trifluoroacetate], in experiment [1], the “CTL counts responsive to Peptide SEQ ID No. 18” value was “more”.
Turning to `CCCCOc1nc(N)c2[nH]c(=O)n(Cc3ccc(CN(C)CCOCCOCCOCCOCCO)cc3)c2n1` [Example 3, 6-amino-2-butoxy-9-{[4-(16-hydroxy-2-methyl-5,8,11,14-tetraoxa-2-azahexadecan-1-yl)phenyl]methyl}-7,9-dihydro-8H-purin-8-one], in experiment [2], the “yield of cytokine and chemokine (IL-1β, IL-6, IL-12p40, IL-12p70, IP-10, MIP-1α, MIP-1β, Rantes, TNFα)” value is reported as “higher”. In experiment [3], the “T-cell counts responsive to Peptide SEQ ID No. 4 (helper T-cell)” value was “more”.
